From article PMC12299813, “Combined Metabolomics and Network Pharmacology to Reveal Anti-Diabetic Mechanisms and Potential Pharmacological Components of Synsepalum dulcificum” (Plants, 2025)

Test system: not given
Assay: not given
Design: method as in doi:10.1016/j.jtice.2010.05.008
Conditions: isolated from the stem of SD; cited from earlier work

Compound	DPPH radical scavenging activity compared to positive control vitamin C
COc1cc([C@H]2OC[C@H]3[C@@H]2CO[C@H]3c2cc(OC)c(O)c(OC)c2)cc(OC)c1O [(+)-epi-syringaresinol]	superior
COc1cc([C@H]2OC[C@H]3[C@@H]2CO[C@@H]3c2cc(OC)c(O)c(OC)c2)cc(OC)c1O [(+)-syringaresinol]	superior

Biological target: α-glucosidase
Assay: α-glucosidase inhibition assay (PNPG method)
Type: biochemical, yeast
Conditions: acarbose positive control, three repetitions, read-out: IC50 ± SD of α-glucosidase inhibition, S. dulcificum components
Text: Ultrapure water was obtained using the UP series ultrapure water system (Chengdu, China). […] HPLC-grade formic acid was purchased from Shanghai Aladdin Biochemical Technology Co., Ltd. (Shanghai, China). HPLC-grade methanol and acetonitrile were purchased from Merck (Darmstadt, Germany). Di-methyl sulfoxide (DMSO) was purchased from Tianjin Dama Chemical Reagent Factory (Tianjin, China). Disodium hydrogen phosphate was purchased from Guangdong Guanghua Technology Co., Ltd. (Shantou, China). Other analytical-grade chemicals and reagents, such as sodium chloride and anhydrous ethanol, were obtained from Sichuan Xilong Scientific Co., Ltd. (Chengdu, China).
Soak the crushed stems, leaves, and fruits of S. dulcificum in methanol for 24 h, then extract the chemical components using ethyl acetate. After that, concentrate the extract using a rotary vacuum evaporator, repeating the extraction three times to obtain the crude extracts, which are then prepared at concentrations of 0.5, 1, 8, and 16 mg/mL, respectively, for subsequent inhibition experiments.
The assay was conducted following a previously described method, and made some minor adjustments. Briefly, 0.1 M phosphate-buffered saline (PBS, pH 6.9) was used to prepare standard sample solutions of different concentrations, α-glucosidase (1 U/mL), and p-nitrophenyl-α-D-glucopyranoside (α-PNPG, 5 mM). A mixture of the sample (50 μL) and α-glucosidase (50 μL) was incubated at 37 °C for 10 min, followed by the addition of 50 μL of PNPG and further incubation at 37 °C for 20 min. Finally, 100 μL of Na2CO3 (0.1 M) was added to terminate the reaction after incubating at 37 °C for 10 min. […] The experiment was set up with three repetitions, and the IC50 values were determined.

Compound	IC50 [mM]
C=C(C)[C@@H]1CC[C@]2(C(=O)O)CC[C@]3(C)[C@H](CC[C@@H]4[C@@]5(C)CC[C@H](O)C(C)(C)[C@@H]5CC[C@]43C)[C@@H]12 [Betulinic acid]	0.07 ± 0.02
C[C@H]1[C@H](C)CC[C@]2(C(=O)O)CC[C@]3(C)C(=CC[C@@H]4[C@@]5(C)C[C@@H](O)[C@H](O)C(C)(C)[C@@H]5CC[C@]43C)[C@H]12 [Corosolic acid]	2.12 ± 0.44
COC(=O)c1cc(O)c(O)c(O)c1 [Methyl gallate]	4.18 ± 1.09
CC(C)=CCC/C(C)=C/CC/C(C)=C/CC/C=C(\C)CC/C=C(\C)CCC=C(C)C [Squalene]	55.1 ± 1.8
CC[C@H](/C=C/[C@@H](C)[C@H]1CC[C@H]2[C@@H]3CC=C4C[C@@H](O)CC[C@]4(C)[C@H]3CC[C@]12C)C(C)C [Stigmasterol]	2.11 ± 0.24
COc1cc(/C=C/CO)cc(OC)c1O[C@@H]1O[C@H](CO)[C@@H](O)[C@H](O)[C@H]1O [Syringin]	5.4 ± 1.2

Test system: type 2 diabetic albino rats
Assay: not given
Design: method as in PMID 28917550
Conditions: cited from earlier work

Compound	blood glucose levels
COc1ccc(Cl)cc1C(=O)NCCc1ccc(S(=O)(=O)NC(=O)NC2CCCCC2)cc1 [glibenclamide]	significantly lowered
